Drawing on patent US9867833B2, “Serine/threonine kinase inhibitors” (GENENTECH, INC., priority 2013, dated 2018), this text covers IC50 for 21 compounds.

pIC50: −log10 of the molar value.

The target of this assay is human ERK-2 (Mitogen Activated Kinase 1) (Homo sapiens (Human), UniProt P28482). The assay is described as follows: ERK-2 Enzymatic Assay. Format: biochemical. As to conditions: human ERK-2 enzyme 5 nM, 25 μM ATP, S/T17 peptide substrate; isomer = configuration of CR2R3. How it is done:
Compounds were tested in an enzymatic assay using human ERK-2 (Mitogen Activated Kinase 1), recombinantly expressed as an n-terminal 6-His fusion protein in E. coli and corresponding to aa 8-360. […] Test compounds were diluted in DMSO in 3-fold serial dilutions at 100× final concentrations. […] The data collected from each well was fit to a straight line, and the resulting rates were used to calculate percent of control. Percent of control was plotted against compound concentration, and IC50 values were determined using a four-parameter fit.

human ERK-2 (Mitogen Activated Kinase 1), sequence (P28482 8-360): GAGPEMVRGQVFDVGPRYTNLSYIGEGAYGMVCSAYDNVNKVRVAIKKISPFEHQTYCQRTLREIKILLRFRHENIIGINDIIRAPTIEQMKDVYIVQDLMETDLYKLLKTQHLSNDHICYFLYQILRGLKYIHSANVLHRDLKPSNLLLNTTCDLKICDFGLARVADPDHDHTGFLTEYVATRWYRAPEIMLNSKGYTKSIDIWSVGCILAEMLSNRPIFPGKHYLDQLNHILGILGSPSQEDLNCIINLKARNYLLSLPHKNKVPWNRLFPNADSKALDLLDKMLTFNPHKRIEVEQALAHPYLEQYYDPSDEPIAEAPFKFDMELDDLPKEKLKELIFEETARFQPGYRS

The compound `Cn1nccc1Nc1nccc(-c2cc3n4c(nnc4c2)[C@H](Oc2cncc(Cl)c2)CCO3)n1` [(R) I-77, 4-(9-((5-chloropyridin-3-yl)oxy)-8,9-dihydro-7H-6-oxa-1,2,2a^1-triazabenzo[cd]azulen-4-yl)-N-(1-methyl-1H-pyrazol-5-yl)pyrimidin-2-amine] gave a pIC50 of 9.51.
On to `Cn1nccc1Nc1cc(-c2cc3n4c(nnc4c2)[C@H](Oc2cncc(Cl)c2)CCO3)ccn1` [(R) I-78, 4-(9-((5-chloropyridin-3-yl)oxy)-8,9-dihydro-7H-6-oxa-1,2,2a^1-triazabenzo[cd]azulen-4-yl)-N-(1-methyl-1H-pyrazol-5-yl)pyridin-2-amine], for which the pIC50 was 8.34.
The compound `Cn1nccc1Nc1nccc(-c2cc3n4c(nnc4c2)[C@@H](Cc2ccc(F)c(Cl)c2)CO3)n1` [(R) I-82, 4-(3-(3-chloro-4-fluorobenzyl)-3,4-dihydro-5-oxa-1,2,2a^1-triazaacenaphthylen-7-yl)-N-(1-methyl-1H-pyrazol-5-yl)pyrimidin-2-amine] showed a pIC50 of 9.22.
To `CN1C(=O)C[C@@H](Cc2ccc(Cl)cn2)c2nnc3cc(-c4ccnc(Nc5ccnn5C)n4)cc1n23` [(R) I-84, 9-((5-chloropyridin-2-yl)methyl)-6-methyl-4-(2-((1-methyl-1H-pyrazol-5-yl)amino)pyrimidin-4-yl)-8,9-dihydro-1,2,2a^1,6-tetraazabenzo[cd]azulen-7(6H)-one] belongs 9.99; to `COc1ccc(C[C@@H]2CC(=O)N(C)c3cc(-c4ccnc(Nc5ccnn5C)n4)cc4nnc2n34)c(F)c1` [(R) I-85, 9-(2-fluoro-4-methoxybenzyl)-6-methyl-4-(2-((1-methyl-1H-pyrazol-5-yl)amino)pyrimidin-4-yl)-8,9-dihydro-1,2,2a^1,6-tetraazabenzo[cd]azulen-7(6H)-one], over 10.70; to `CC(C)[C@H]1CC(=O)N(C)c2cc(-c3ccnc(Nc4ccnn4C)c3)cc3nnc1n23` [(R) I-87, 9-isopropyl-6-methyl-4-(2-((1-methyl-1H-pyrazol-5-yl)amino)pyridin-4-yl)-8,9-dihydro-1,2,2a^1,6-tetraazabenzo[cd]azulen-7(6H)-one], 8.16.
The result for `Cn1nccc1Nc1nccc(-c2cc3n4c(nnc4c2)[C@@H](Cc2cccc(Cl)c2)CO3)n1` [(R) I-88, 4-(3-(3-chlorobenzyl)-3,4-dihydro-5-oxa-1,2,2a^1-triazaacenaphthylen-7-yl)-N-(1-methyl-1H-pyrazol-5-yl)pyrimidin-2-amine] reads over 10.70; that for `Cn1nccc1Nc1cc(-c2cc3n4c(nnc4c2)[C@@H](Cn2cc(C(F)(F)F)cn2)CCO3)ccn1` [(R) I-89, N-(1-methyl-1H-pyrazol-5-yl)-4-(9-((4-(trifluoromethyl)-1H-pyrazol-1-yl)methyl)-8,9-dihydro-7H-6-oxa-1,2,2a^1-triazabenzo[cd]azulen-4-yl)pyridin-2-amine], over 10.70; that for `Cn1nccc1Nc1nccc(-c2cc3n4c(nnc4c2)[C@H](Oc2ccccc2)CCO3)n1` [(R) I-90, N-(1-methyl-1H-pyrazol-5-yl)-4-(9-phenoxy-8,9-dihydro-7H-6-oxa-1,2,2a^1-triazabenzo[cd]azulen-4-yl)pyrimidin-2-amine], 9.03.
To `Cn1nccc1Nc1nccc(-c2cc3n4c(nnc4c2)[C@H](Oc2cncc(F)c2)CCO3)n1` [(R) I-91, 4-(9-((5-fluoropyridin-3-yl)oxy)-8,9-dihydro-7H-6-oxa-1,2,2a^1-triazabenzo[cd]azulen-4-yl)-N-(1-methyl-1H-pyrazol-5-yl)pyrimidin-2-amine] belongs 7.59; to `Cc1cc(C[C@H]2CCOc3cc(-c4ccnc(Nc5ccnn5C)n4)cc4nnc2n34)on1` [(R) I-93, N-(1-methyl-1H-pyrazol-5-yl)-4-(9-((3-methylisoxazol-5-yl)methyl)-8,9-dihydro-7H-6-oxa-1,2,2a^1-triazabenzo[cd]azulen-4-yl)pyrimidin-2-amine], over 10.70.
As for `COc1cccc(C[C@H]2COc3cc(-c4ccnc(Nc5ccnn5C)c4)cc4nnc2n34)c1` [(R) I-97, 4-(3-(3-methoxybenzyl)-3,4-dihydro-5-oxa-1,2,2a^1-triazaacenaphthylen-7-yl)-N-(1-methyl-1H-pyrazol-5-yl)pyridin-2-amine], the pIC50 was over 10.70.
To `Cn1nccc1Nc1nccc(-c2cc3n4c(nnc4c2)[C@H](CCC(F)(F)F)CCO3)n1` [(R) I-102, N-(1-methyl-1H-pyrazol-5-yl)-4-(9-(3,3,3-trifluoropropyl)-8,9-dihydro-7H-6-oxa-1,2,2a^1-triazabenzo[cd]azulen-4-yl)pyrimidin-2-amine] belongs 8.77.
To `CCC[C@@H]1CCOc2cc(-c3ccnc(Nc4ccnn4C)c3)cc3nnc1n23` [(R) I-103, N-(1-methyl-1H-pyrazol-5-yl)-4-(9-propyl-8,9-dihydro-7H-6-oxa-1,2,2a^1-triazabenzo[cd]azulen-4-yl)pyridin-2-amine] belongs 8.56; to `CCC[C@@H]1CCOc2cc(-c3ccnc(Nc4ccnn4C)n3)cc3nnc1n23` [(R) I-104, N-(1-methyl-1H-pyrazol-5-yl)-4-(9-propyl-8,9-dihydro-7H-6-oxa-1,2,2a^1-triazabenzo[cd]azulen-4-yl)pyrimidin-2-amine], 8.64.
Turning to `CC(C)C[C@@H]1CCOc2cc(-c3ccnc(Nc4ccnn4C)n3)cc3nnc1n23` [(R) I-107, 4-(9-isobutyl-8,9-dihydro-7H-6-oxa-1,2,2a^1-triazabenzo[cd]azulen-4-yl)-N-(1-methyl-1H-pyrazol-5-yl)pyrimidin-2-amine], the pIC50 was 8.73.
To `Cn1nccc1Nc1nccc(-c2cc3n4c(nnc4c2)C(Oc2ccc(F)cc2)CCO3)n1` [(R) I-108, 4-(9-(4-fluorophenoxy)-8,9-dihydro-7H-6-oxa-1,2,2a^1-triazabenzo[cd]azulen-4-yl)-N-(1-methyl-1H-pyrazol-5-yl)pyrimidin-2-amine] belongs 8.53; to `Cc1csc(C[C@H]2CCOc3cc(-c4ccnc(Nc5ccnn5C)n4)cc4nnc2n34)n1` [(R) I-109, N-(1-methyl-1H-pyrazol-5-yl)-4-(9-((4-methylthiazol-2-yl)methyl)-8,9-dihydro-7H-6-oxa-1,2,2a^1-triazabenzo[cd]azulen-4-yl)pyrimidin-2-amine], over 10.70.
To `Clc1cnn(C[C@H]2CCOc3cc(-c4ccnc(NC5CCOCC5)n4)cc4nnc2n34)c1` [(R) I-110, 4-(9-((4-chloro-1H-pyrazol-1-yl)methyl)-8,9-dihydro-7H-6-oxa-1,2,2a^1-triazabenzo[cd]azulen-4-yl)-N-(tetrahydro-2H-pyran-4-yl)pyrimidin-2-amine] belongs over 10.70; to `Cn1nccc1Nc1nccc(-c2cc3n4c(nnc4c2)[C@H](Oc2ccc(F)c(F)c2)CCO3)n1` [(R) I-111, 4-(9-(3,4-difluorophenoxy)-8,9-dihydro-7H-6-oxa-1,2,2a^1-triazabenzo[cd]azulen-4-yl)-N-(1-methyl-1H-pyrazol-5-yl)pyrimidin-2-amine], 8.59.
Take `Cn1nccc1Nc1nccc(-c2cc3n4c(nnc4c2)[C@@H](c2ccccc2)CN3)n1` [(S) I-1, N-(1-methyl-1H-pyrazol-5-yl)-4-(3-phenyl-4,5-dihydro-3H-1,2,2a^1,5-tetraazaacenaphthylen-7-yl)pyrimidin-2-amine]: the pIC50 is 8.96.
